Source: the kinase profiling compilation of Christmann-Franck et al. (2016)

How the values were obtained:
Test in all cases: radiometric filter-binding kinase assay
CHEK1 (human) = CHEK1 (human) (UniProt O14757)
TTK (human) = TTK (human) (UniProt P33981)
MINK1 (human) = MINK1 (human) (UniProt Q8N4C8)
MAPK10 (human) = MAPK10 (human) (UniProt P53779); details: compound 0.1 µM
CDK2 CCNA2 (human) = CDK2 CCNA2 (human) (UniProt P20248+P24941)
AURKB (human) = AURKB (human) (UniProt Q96GD4)
SRC (human) = SRC (human) (UniProt P12931)
[1] = system: AKT1 (human), P31749 [S473D]
DYRK3 (human) = DYRK3 (human) (UniProt O43781)
TBK1 (human) = TBK1 (human) (UniProt Q9UHD2)
LCK (mouse) = details: accession and sequence are those of the human protein
ROCK2 (rat) = details: accession and sequence are those of the human protein
EPHA2 (human) = EPHA2 (human) (UniProt P29317)
MAPK8 (human) = MAPK8 (human) (UniProt P45983)
MST4 (human) = MST4 (human) (UniProt Q9P289)
EPHB3 (human) = EPHB3 (human) (UniProt P54753)
EPHA4 (human) = EPHA4 (human) (UniProt P54764); details: compound 0.1 µM
TAOK1 (human) = TAOK1 (human) (UniProt Q7L7X3); details: compound 0.1 µM
PAK4 (human) = PAK4 (human) (UniProt O96013)
CaMK1 (human) = CaMK1 (human) (UniProt Q14012)
CHEK2 (human) = CHEK2 (human) (UniProt O96017)
MAP2K1 (human) = MAP2K1 (human) (UniProt Q02750)
EPHB2 (human) = EPHB2 (human) (UniProt P29323); details: compound 0.1 µM
PAK6 (human) = PAK6 (human) (UniProt Q9NQU5)
EPHB1 (human) = EPHB1 (human) (UniProt P54762); details: compound 0.1 µM
RPS6KA3 KD1 KD2 (human) = RPS6KA3 KD1 KD2 (human) (UniProt P51812)
MAP3K7 TAB1 (human) = MAP3K7 TAB1 (human) (UniProt Q15750+O43318); details: compound 0.1 µM
[2] = system: PAK2 (human), Q13177 [T402E]; details: compound 0.1 µM
MARK2 (human) = MARK2 (human) (UniProt Q7KZI7); details: compound 0.1 µM
CSK (human) = CSK (human) (UniProt P41240)
PKN2 (human) = PKN2 (human) (UniProt Q16513)
IKBKB (human) = IKBKB (human) (UniProt O14920)
NUAK1 (human) = NUAK1 (human) (UniProt O60285)
GCK (human) = GCK (human) (UniProt Q12851)
MYLK (human) = MYLK (human) (UniProt Q15746)
MAP3K11 (human) = MAP3K11 (human) (UniProt Q16584)

Sequence of EPHA2 (human) (P29317 whole entry, looked up): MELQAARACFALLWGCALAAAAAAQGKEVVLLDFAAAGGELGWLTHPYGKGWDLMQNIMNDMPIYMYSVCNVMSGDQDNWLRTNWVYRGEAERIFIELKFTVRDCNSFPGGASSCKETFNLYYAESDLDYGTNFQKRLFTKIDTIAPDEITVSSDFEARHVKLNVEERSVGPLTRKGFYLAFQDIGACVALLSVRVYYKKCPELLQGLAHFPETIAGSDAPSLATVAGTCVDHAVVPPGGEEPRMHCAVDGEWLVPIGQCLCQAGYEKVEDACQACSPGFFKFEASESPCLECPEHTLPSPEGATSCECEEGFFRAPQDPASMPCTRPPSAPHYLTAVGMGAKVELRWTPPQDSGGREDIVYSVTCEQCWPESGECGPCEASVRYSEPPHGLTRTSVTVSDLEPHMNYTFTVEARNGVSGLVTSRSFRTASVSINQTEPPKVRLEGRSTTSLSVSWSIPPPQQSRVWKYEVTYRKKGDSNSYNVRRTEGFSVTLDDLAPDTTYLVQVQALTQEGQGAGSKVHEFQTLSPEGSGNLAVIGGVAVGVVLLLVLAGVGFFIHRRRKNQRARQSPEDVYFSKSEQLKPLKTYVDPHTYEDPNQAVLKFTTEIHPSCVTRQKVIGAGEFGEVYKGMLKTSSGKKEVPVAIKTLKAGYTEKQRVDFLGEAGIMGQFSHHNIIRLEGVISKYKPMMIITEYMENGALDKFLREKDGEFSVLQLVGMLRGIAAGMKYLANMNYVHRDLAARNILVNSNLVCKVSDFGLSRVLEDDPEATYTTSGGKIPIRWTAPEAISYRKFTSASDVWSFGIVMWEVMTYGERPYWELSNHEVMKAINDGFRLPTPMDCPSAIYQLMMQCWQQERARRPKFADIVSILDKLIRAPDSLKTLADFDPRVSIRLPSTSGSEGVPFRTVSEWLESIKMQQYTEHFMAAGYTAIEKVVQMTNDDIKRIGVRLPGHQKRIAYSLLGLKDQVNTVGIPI
Sequence of SRC (human) (P12931 whole entry, looked up): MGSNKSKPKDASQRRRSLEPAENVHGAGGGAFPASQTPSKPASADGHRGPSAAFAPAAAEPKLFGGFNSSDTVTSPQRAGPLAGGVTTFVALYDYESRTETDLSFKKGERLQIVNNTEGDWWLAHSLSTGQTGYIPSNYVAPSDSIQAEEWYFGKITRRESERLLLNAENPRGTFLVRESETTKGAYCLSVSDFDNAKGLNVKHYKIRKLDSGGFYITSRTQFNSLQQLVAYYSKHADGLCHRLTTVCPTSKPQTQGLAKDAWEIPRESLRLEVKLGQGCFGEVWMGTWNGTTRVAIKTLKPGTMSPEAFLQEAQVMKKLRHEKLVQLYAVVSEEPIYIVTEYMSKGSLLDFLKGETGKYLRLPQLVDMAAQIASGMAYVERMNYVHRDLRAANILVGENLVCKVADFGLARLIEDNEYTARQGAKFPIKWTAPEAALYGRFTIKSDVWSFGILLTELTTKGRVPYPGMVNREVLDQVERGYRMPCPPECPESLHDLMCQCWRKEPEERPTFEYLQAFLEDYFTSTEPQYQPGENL
Sequence of PAK4 (human) (O96013 whole entry, looked up): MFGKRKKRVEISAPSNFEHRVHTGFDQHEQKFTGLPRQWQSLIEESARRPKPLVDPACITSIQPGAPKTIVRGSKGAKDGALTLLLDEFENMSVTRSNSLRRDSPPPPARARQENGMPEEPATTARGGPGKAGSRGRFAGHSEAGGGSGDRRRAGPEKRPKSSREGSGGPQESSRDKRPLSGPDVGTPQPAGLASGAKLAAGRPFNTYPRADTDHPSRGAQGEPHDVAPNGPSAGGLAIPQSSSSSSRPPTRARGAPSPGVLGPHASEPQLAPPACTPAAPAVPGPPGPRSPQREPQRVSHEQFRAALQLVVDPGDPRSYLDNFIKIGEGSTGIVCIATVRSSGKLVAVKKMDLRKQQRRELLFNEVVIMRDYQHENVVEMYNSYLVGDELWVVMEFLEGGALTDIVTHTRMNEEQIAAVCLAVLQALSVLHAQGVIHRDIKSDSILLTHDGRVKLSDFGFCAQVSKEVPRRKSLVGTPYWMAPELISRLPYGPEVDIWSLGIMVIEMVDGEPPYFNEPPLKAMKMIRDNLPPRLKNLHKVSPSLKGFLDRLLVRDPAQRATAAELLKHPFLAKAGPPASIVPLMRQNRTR
Sequence of AKT1 (human), P31749 [S473D] (P31749 whole entry S473D, looked up): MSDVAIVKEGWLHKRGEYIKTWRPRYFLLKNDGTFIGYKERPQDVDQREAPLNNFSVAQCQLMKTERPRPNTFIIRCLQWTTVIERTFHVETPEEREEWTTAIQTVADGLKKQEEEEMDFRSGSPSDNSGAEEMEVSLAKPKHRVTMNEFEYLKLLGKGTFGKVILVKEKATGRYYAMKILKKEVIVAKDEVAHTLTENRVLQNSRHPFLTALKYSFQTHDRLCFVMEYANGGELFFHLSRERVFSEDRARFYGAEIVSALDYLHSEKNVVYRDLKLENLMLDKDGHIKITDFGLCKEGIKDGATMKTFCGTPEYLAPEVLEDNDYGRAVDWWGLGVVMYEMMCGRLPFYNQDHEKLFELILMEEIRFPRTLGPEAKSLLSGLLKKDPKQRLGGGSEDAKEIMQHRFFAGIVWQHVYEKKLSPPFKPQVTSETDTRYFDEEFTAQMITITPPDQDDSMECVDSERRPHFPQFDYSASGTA
Sequence of TBK1 (human) (Q9UHD2 whole entry, looked up): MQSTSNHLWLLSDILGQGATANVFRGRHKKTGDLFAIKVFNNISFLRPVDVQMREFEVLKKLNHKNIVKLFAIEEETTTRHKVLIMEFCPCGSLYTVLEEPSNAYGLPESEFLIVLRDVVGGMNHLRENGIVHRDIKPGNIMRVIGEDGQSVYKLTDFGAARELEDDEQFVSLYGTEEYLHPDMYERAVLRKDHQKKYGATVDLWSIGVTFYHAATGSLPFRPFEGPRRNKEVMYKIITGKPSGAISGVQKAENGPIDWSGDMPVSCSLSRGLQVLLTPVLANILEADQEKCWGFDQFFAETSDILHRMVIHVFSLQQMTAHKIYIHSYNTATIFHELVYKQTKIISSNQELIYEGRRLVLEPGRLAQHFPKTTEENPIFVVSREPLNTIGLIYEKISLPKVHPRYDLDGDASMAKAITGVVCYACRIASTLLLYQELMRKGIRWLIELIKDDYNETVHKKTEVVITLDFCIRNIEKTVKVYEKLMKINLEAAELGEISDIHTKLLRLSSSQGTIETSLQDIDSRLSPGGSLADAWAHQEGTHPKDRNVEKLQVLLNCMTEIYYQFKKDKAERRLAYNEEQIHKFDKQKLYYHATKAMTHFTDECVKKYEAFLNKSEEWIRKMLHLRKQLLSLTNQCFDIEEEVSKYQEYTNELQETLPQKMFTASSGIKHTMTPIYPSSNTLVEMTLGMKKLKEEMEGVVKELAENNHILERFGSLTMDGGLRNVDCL
Sequence of PKN2 (human) (Q16513 whole entry, looked up): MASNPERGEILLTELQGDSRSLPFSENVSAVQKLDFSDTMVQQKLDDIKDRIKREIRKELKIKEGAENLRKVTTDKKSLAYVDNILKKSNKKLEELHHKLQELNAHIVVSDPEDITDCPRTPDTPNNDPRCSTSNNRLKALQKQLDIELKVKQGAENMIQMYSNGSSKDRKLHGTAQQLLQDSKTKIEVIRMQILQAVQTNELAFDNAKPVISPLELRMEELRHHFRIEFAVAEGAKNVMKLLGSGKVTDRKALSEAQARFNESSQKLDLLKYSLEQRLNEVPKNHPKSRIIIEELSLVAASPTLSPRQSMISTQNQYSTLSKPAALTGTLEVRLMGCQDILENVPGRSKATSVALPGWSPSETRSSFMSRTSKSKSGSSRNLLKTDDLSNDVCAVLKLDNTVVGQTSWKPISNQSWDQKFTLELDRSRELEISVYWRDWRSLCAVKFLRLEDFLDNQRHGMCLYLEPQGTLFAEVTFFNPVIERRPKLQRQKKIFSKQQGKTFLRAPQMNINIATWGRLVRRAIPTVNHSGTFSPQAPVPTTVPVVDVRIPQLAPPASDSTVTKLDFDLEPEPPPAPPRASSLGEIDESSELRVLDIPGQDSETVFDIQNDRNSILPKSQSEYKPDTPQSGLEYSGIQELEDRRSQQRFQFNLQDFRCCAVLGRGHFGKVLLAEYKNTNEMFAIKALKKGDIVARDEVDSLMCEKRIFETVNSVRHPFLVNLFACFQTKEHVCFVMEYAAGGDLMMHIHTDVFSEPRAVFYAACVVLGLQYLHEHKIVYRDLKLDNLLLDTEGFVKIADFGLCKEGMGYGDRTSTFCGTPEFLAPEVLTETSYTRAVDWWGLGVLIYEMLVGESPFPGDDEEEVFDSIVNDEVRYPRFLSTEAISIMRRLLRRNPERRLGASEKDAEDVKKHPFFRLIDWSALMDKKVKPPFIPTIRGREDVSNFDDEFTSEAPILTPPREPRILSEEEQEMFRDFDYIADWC
Sequence of MST4 (human) (Q9P289 whole entry, looked up): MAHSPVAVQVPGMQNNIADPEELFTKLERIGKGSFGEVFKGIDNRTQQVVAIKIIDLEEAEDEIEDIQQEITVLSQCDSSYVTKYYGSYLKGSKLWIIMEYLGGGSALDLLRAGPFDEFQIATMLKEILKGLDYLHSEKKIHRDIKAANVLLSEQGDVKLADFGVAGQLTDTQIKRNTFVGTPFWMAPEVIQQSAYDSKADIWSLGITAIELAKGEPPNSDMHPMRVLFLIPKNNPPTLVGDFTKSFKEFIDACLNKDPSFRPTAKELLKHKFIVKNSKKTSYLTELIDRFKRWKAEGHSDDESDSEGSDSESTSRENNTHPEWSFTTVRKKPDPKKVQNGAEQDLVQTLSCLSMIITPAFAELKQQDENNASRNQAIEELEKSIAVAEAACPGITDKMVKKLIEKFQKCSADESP

residual activity (CHEK1 (human); compound 0.1 µM): 112%
residual activity (CHEK1 (human); compound 1.0 µM): 108%
residual activity (CHEK1 (human); compound 10.0 µM): 79%
residual activity (TTK (human); compound 0.1 µM): 89%
residual activity (TTK (human); compound 1.0 µM): 79%
residual activity (TTK (human); compound 10.0 µM): 46%
residual activity (MINK1 (human); compound 0.1 µM): 68%
residual activity (MINK1 (human); compound 1.0 µM): 19%
residual activity (MINK1 (human); compound 10.0 µM): 2%
residual activity (MAPK10 (human)): 73%
residual activity (CDK2 CCNA2 (human); compound 0.1 µM): 106%
residual activity (CDK2 CCNA2 (human); compound 1.0 µM): 1%
residual activity (CDK2 CCNA2 (human); compound 10.0 µM): 0%
residual activity (AURKB (human); compound 0.1 µM): 85%
residual activity (AURKB (human); compound 1.0 µM): 32%
residual activity (AURKB (human); compound 10.0 µM): 6%
residual activity (SRC (human); compound 0.1 µM): 93%
residual activity (SRC (human); compound 1.0 µM): 102%
residual activity (SRC (human); compound 10.0 µM): 44%
residual activity ([1]; compound 0.1 µM): 104%
residual activity ([1]; compound 1.0 µM): 72%
residual activity ([1]; compound 10.0 µM): 57%
residual activity (DYRK3 (human); compound 0.1 µM): 79%
residual activity (DYRK3 (human); compound 1.0 µM): 57%
residual activity (DYRK3 (human); compound 10.0 µM): 17%
residual activity (TBK1 (human); compound 0.1 µM): 86%
residual activity (TBK1 (human); compound 1.0 µM): 70%
residual activity (TBK1 (human); compound 10.0 µM): 27%
residual activity (LCK (mouse); compound 0.1 µM): 109%
residual activity (LCK (mouse); compound 1.0 µM): 79%
residual activity (ROCK2 (rat); compound 0.1 µM): 84%
residual activity (ROCK2 (rat); compound 1.0 µM): 59%
residual activity (ROCK2 (rat); compound 10.0 µM): 33%
residual activity (EPHA2 (human); compound 0.1 µM): 92%
residual activity (EPHA2 (human); compound 1.0 µM): 97%
residual activity (EPHA2 (human); compound 10.0 µM): 85%
residual activity (MAPK8 (human); compound 0.1 µM): 81%
residual activity (MAPK8 (human); compound 1.0 µM): 74%
residual activity (MAPK8 (human); compound 10.0 µM): 39%
residual activity (MST4 (human); compound 0.1 µM): 81%
residual activity (MST4 (human); compound 1.0 µM): 68%
residual activity (MST4 (human); compound 10.0 µM): 13%
residual activity (EPHB3 (human); compound 0.1 µM): 108%
residual activity (EPHB3 (human); compound 10.0 µM): 101%
residual activity (EPHA4 (human)): 103%
residual activity (TAOK1 (human)): 98%
residual activity (PAK4 (human); compound 0.1 µM): 96%
residual activity (PAK4 (human); compound 1.0 µM): 85%
residual activity (PAK4 (human); compound 10.0 µM): 39%
residual activity (CaMK1 (human); compound 0.1 µM): 104%
residual activity (CaMK1 (human); compound 1.0 µM): 99%
residual activity (CaMK1 (human); compound 10.0 µM): 80%
residual activity (CHEK2 (human); compound 0.1 µM): 83%
residual activity (CHEK2 (human); compound 1.0 µM): 40%
residual activity (CHEK2 (human); compound 10.0 µM): 28%
residual activity (MAP2K1 (human); compound 0.1 µM): 105%
residual activity (MAP2K1 (human); compound 1.0 µM): 34%
residual activity (MAP2K1 (human); compound 10.0 µM): 12%
residual activity (EPHB2 (human)): 86%
residual activity (PAK6 (human); compound 0.1 µM): 102%
residual activity (PAK6 (human); compound 1.0 µM): 103%
residual activity (PAK6 (human); compound 10.0 µM): 61%
residual activity (EPHB1 (human)): 94%
residual activity (RPS6KA3 KD1 KD2 (human); compound 0.1 µM): 96%
residual activity (RPS6KA3 KD1 KD2 (human); compound 1.0 µM): 97%
residual activity (MAP3K7 TAB1 (human)): 115%
residual activity [2]: 99%
residual activity (MARK2 (human)): 88%
residual activity (CSK (human); compound 0.1 µM): 99%
residual activity (CSK (human); compound 1.0 µM): 96%
residual activity (CSK (human); compound 10.0 µM): 98%
residual activity (PKN2 (human); compound 0.1 µM): 76%
residual activity (PKN2 (human); compound 1.0 µM): 31%
residual activity (PKN2 (human); compound 10.0 µM): 5%
residual activity (IKBKB (human); compound 0.1 µM): 94%
residual activity (IKBKB (human); compound 1.0 µM): 97%
residual activity (IKBKB (human); compound 10.0 µM): 64%
residual activity (NUAK1 (human); compound 0.1 µM): 45%
residual activity (NUAK1 (human); compound 1.0 µM): 15%
residual activity (NUAK1 (human); compound 10.0 µM): 10%
residual activity (GCK (human); compound 0.1 µM): 8%
residual activity (GCK (human); compound 1.0 µM): 3%
residual activity (GCK (human); compound 10.0 µM): 1%
residual activity (MYLK (human); compound 0.1 µM): 87%
residual activity (MYLK (human); compound 1.0 µM): 102%
residual activity (MYLK (human); compound 10.0 µM): 87%
residual activity (MAP3K11 (human); compound 0.1 µM): 75%
residual activity (MAP3K11 (human); compound 1.0 µM): 33%
residual activity (MAP3K11 (human); compound 10.0 µM): 5%
Compound: O=C(O)c1ccc(-c2c[nH]c3ncc(-c4ccccc4)cc23)cc1C1CCCC1
